Results from US20100166726A1, “COMPOSITIONS FOR IMPROVING CELLULAR UPTAKE OF A CHEMOTHERAPEUTIC AGENT IN A CELL EXHIBITING MUCIN DEREGULATION” (NORTHEASTERN UNIVERSITY, priority 2007, published 2010).

Test system: Capan-1 cells
Test: Cytotoxic activity of chemotherapeutic agents with or without benzyl-α-GalNAc pretreatment, sulforhodamine B assay
Type: cell-based, human
Conditions: benzyl-α-GalNAc 48 hr, then drug 24 hr
Procedure: Human pancreatic cancer cell morphology was visualized using light microscopy. Six hydrophilic chemotherapeutic agents namely cisplatin, gemcitabine, carboplatin, methotrexate, doxorubicin, vinblastine and six lipophilic agents namely lomustine, busulfan, camptothecin, etoposide, teniposide and paclitaxel with molecular weights ranging from approximately 200 to 900 were used. Two different concentrations of each drug type were evaluated in the presence and absence of heavily O-glycosylated chains with Benzyl-α-GalNAc as O-glycosylation inhibitor. Cell viability was determined using Sulforhodamine B assay. The percent change in cell viability was used to assess the overall benefit of reducing mucin in Capan-1 cells when different cytotoxic drugs are employed.
The growth inhibitory effect of the chemotherapeutic agent after 24 hr of exposure was determined by sulforhodamine B assay and percent of viable cells was calculated as follows: […]

| SMILES | Percent increase in chemotherapeutic activity (chemotherapeutic benefit) when pretreated with benzyl-α-GalNAc |
| --- | --- |
| CC[C@@]1(O)C(=O)OCc2c1cc1n(c2=O)Cc2cc3ccccc3nc2-1 [Camptothecin] | 34% |
| N.N.O=C([O-])C1(C(=O)[O-])CCC1.[Pt+2] [Carboplatin] | 33% |
